Experimental data from ChEMBL document CHEMBL3112567, “Novel GlyT1 inhibitor chemotypes by scaffold hopping. Part 1: development of a potent and CNS penetrant [3.1.0]-based lead” (Bioorg Med Chem Lett, 2014).
The source made the active and inactive calls. No cut-off for these calls is given here.

Legend:
[1] = biological target: T1, Sodium- and chloride-dependent glycine transporter 2 (Homo sapiens, UniProt Q9Y345); experiment: Inhibition of GlyT2 (unknown origin)
T1 sequence (Q9Y345 whole entry): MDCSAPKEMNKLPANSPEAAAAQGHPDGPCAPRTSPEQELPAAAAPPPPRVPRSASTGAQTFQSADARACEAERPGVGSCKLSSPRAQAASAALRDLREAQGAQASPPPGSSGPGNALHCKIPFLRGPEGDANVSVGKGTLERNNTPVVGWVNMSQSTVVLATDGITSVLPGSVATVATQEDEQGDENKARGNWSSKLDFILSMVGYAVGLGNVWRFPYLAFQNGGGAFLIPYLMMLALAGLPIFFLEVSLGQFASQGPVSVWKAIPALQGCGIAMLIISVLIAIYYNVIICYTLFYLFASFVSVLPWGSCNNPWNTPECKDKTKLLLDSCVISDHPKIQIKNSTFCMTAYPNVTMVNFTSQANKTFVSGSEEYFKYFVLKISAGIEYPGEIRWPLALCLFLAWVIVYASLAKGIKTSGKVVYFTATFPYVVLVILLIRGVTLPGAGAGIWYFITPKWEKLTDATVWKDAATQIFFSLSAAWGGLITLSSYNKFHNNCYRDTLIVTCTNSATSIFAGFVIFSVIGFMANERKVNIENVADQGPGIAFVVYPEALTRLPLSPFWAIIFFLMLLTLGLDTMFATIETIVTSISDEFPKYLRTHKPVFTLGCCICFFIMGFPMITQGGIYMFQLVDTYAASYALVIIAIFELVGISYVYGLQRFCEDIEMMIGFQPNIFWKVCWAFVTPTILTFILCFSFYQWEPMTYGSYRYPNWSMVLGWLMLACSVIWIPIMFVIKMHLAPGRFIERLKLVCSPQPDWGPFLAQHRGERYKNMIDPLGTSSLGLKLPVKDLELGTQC

[2] = biological target: T2, Sodium- and chloride-dependent glycine transporter 1 (Homo sapiens, UniProt P48067); experiment: Inhibition of GlyT1 (unknown origin) assessed as inhibition of [14C]glycine uptake
T2 sequence (P48067 whole entry): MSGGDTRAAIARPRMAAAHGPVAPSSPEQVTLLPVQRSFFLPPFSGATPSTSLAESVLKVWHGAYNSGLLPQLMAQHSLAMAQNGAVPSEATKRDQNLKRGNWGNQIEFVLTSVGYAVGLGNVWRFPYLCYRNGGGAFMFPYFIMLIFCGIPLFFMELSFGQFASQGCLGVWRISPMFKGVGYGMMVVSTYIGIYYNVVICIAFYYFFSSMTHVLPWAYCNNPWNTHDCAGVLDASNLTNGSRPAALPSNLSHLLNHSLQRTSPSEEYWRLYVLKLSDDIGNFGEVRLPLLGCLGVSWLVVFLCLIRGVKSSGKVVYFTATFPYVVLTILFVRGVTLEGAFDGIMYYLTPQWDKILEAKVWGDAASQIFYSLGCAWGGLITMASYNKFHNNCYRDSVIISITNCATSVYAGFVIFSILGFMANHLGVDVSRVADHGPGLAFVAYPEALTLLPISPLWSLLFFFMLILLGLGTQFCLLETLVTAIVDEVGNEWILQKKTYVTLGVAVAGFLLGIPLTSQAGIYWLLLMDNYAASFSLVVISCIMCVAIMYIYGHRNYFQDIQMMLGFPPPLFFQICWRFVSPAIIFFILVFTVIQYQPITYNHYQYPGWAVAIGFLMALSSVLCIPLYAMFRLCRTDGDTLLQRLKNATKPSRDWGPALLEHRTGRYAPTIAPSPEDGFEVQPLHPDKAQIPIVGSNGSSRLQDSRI

Plasma [3] = experiment: Metabolic stability in rat plasma after 4 hrs; type: ADME, cell-free
[4] = AUC (0 to 6 hrs) in rat brain at 10 mg/kg, sc; type: ADME, organism-based; set-up: time < 6 hr, dose 10 mg/kg, route subcutaneous
Plasma [5] = experiment: AUC (0 to 6 hrs) in rat plasma at 10 mg/kg, sc; type: ADME, organism-based; set-up: time < 6 hr, dose 10 mg/kg, route subcutaneous; details: in vivo
[6] = Partitioning coefficient, ratio of drug uptake from rat brain to plasma at 10 mg/kg, po; type: ADME, organism-based; set-up: dose 10 mg/kg, route oral
Cytochrome P450 2C9 = Cytochrome P450 2C9 (Homo sapiens, UniProt P11712); experiment: Inhibition of CYP2C9 (unknown origin); type: ADME
Chain of Cytochrome P450 2C9 (P11712 whole entry): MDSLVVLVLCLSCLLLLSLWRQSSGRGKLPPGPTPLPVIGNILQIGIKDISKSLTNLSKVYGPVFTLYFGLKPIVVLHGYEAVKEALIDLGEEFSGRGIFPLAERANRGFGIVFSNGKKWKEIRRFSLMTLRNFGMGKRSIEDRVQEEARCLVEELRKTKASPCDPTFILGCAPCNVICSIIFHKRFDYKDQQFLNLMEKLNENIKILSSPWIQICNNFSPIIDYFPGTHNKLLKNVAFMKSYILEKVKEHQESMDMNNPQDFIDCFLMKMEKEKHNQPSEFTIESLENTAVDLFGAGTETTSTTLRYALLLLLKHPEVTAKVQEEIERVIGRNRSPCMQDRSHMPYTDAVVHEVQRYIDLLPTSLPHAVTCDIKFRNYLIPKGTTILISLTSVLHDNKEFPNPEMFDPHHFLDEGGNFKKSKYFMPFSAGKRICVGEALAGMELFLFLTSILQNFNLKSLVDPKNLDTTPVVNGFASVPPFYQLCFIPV

Rattus norvegicus [7] = experiment: Antischizophrenic activity in rat schizophrenia model assessed as inhibition of […] to […] dB intensity-induced prepulse at 30 mg/kg, po; type: functional, organism-based; set-up: dose 30 mg/kg
[8] = Partitioning coefficient, ratio of drug uptake from rat brain to plasma at 10 mg/kg, sc; type: ADME, organism-based; set-up: dose 10 mg/kg, route subcutaneous
[9] = Half life in rat at 0.5 mg/kg, iv; type: ADME, organism-based; set-up: dose 0.5 mg/kg, route intravenous; details: in vivo
Plasma [10] = experiment: Fraction unbound in rat plasma; type: ADME, cell-free
Plasma [11] = experiment: AUC (0 to 6 hrs) in rat plasma at 10 mg/kg, po; type: ADME, organism-based; set-up: time < 6 hr, dose 10 mg/kg, route oral; details: in vivo
Rattus norvegicus [12] = experiment: Toxicity in rat schizophrenia model assessed as effect on basal startle amplitude at 30 mg/kg, po; type: organism-based; set-up: dose 30 mg/kg, route oral; details: in vivo
[13] = Clearance in rat at 0.5 mg/kg, iv; type: ADME, organism-based; set-up: dose 0.5 mg/kg, route intravenous; details: in vivo
Cytochrome P450 2D6 = Cytochrome P450 2D6 (Homo sapiens, UniProt P10635); experiment: Inhibition of CYP2D6 (unknown origin); type: ADME
Chain of Cytochrome P450 2D6 (P10635 whole entry): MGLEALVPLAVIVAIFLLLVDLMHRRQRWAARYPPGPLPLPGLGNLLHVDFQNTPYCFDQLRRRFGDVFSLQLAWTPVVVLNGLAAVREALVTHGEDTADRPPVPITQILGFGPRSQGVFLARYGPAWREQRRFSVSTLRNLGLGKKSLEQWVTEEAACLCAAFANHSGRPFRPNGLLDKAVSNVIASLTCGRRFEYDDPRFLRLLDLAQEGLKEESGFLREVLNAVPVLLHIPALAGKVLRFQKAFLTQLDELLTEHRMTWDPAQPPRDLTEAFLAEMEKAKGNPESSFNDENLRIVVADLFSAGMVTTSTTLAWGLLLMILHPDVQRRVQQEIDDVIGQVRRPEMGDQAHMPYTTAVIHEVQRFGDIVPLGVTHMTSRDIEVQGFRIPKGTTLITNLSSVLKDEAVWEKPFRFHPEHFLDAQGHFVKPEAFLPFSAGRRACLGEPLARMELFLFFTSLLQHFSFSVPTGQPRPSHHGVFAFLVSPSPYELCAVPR

Cytochrome P450 1A2 = biological target: T3, Cytochrome P450 1A2 (Homo sapiens, UniProt P05177); experiment: Inhibition of CYP1A2 (unknown origin); type: ADME
T3 sequence (P05177 whole entry): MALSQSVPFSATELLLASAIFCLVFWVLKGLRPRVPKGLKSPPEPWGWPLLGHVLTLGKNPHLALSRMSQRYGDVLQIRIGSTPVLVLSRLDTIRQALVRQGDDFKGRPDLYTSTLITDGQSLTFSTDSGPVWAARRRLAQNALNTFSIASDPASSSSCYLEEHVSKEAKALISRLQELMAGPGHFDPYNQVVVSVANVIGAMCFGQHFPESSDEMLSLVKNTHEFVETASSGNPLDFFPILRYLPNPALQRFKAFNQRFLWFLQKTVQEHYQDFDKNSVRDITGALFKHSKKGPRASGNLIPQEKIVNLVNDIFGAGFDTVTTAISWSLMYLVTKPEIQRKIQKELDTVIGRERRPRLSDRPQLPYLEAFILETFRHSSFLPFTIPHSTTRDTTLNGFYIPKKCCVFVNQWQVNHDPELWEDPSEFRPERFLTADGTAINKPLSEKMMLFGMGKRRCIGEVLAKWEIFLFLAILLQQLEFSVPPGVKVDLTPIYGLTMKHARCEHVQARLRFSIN

[14] = AUC (0 to 6 hrs) in rat brain at 10 mg/kg, po; type: ADME, organism-based; set-up: time < 6 hr, dose 10 mg/kg, route oral
Plasma [15] = experiment: (§1) Fraction unbound in human plasma; type: ADME, cell-free
Cytochrome P450 3A4 = Cytochrome P450 3A4 (Homo sapiens, UniProt P08684); experiment: Inhibition of CYP3A4 (unknown origin); type: ADME
Chain of Cytochrome P450 3A4 (P08684 whole entry): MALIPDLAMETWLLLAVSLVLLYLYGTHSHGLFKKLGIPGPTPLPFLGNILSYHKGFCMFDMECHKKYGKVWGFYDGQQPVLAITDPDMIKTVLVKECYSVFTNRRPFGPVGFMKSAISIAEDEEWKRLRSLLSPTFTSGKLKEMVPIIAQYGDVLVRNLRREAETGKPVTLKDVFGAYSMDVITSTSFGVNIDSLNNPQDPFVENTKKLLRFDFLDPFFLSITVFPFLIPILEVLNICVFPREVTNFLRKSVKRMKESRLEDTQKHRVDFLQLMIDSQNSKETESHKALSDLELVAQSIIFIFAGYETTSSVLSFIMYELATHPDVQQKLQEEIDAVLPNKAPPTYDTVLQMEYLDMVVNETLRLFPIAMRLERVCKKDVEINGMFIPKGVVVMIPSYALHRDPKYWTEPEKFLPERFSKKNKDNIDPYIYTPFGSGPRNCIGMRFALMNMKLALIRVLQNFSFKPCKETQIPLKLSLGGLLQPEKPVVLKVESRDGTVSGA

[16] = as §1; type: ADME, cell-free
[17] = biological target: T4, Sodium- and chloride-dependent glycine transporter 1 (Homo sapiens) (UniProt P48067); experiment: Competitive inhibition of GlyT1 (unknown origin) at 40 nM by Eadie-Hofstee plot analysis in presence of [14C]-glycine
T4 sequence (whole entry): T2 sequence (P48067 whole entry)

O=C(NC[C@]1(CC2CC2)[C@@H]2CN(S(=O)(=O)c3ccccc3)C[C@@H]21)c1ccc(Cl)cc1Cl
IC50 [1]: > 30 µM
IC50 [2]: > 10 µM

O=C(NC[C@]1(CC2CC2)[C@@H]2CN(S(=O)(=O)c3ccccn3)C[C@@H]21)c1ccc(Cl)cc1Cl
IC50 [1]: > 30 µM
IC50 [2]: 1 µM

O=C(NC[C@]1(CC2CC2)[C@@H]2CN(S(=O)(=O)CC3CC3)C[C@@H]21)c1ccc(Cl)cc1Cl
IC50 [1]: > 30 µM
IC50 [2]: 0.23 µM

Cn1cnc(S(=O)(=O)N2C[C@@H]3[C@H](C2)[C@@]3(CNC(=O)c2ccccc2C(F)(F)F)CC2CC2)c1
Stability (Plasma [3]): Stable
AUC(0-t) at 6 h [4]: 0.431 µM·h
AUC (Plasma [5]): 0.976 µM·h
Kp ([6]; brain): 0.83
IC50 (Cytochrome P450 2C9): > 30 µM
IC50 [2]: 0.005 µM
inhibition (Rattus norvegicus [7]): Active
Kp [8]: 0.44
half-life [9]: 14.5 min
Fu (Plasma [10]): 44.8%
AUC (Plasma [11]): 1.156 µM·h
Activity (Rattus norvegicus [12]): Non-toxic
clearance [13]: 31 mL/min/kg
IC50 (Cytochrome P450 2D6): > 30 µM
IC50 (Cytochrome P450 1A2): > 30 µM
AUC(0-t) at 6 h [14]: 0.956 µM·h
Fu (Plasma [15]): 7%

CN1C[C@@H]2[C@H](C1)[C@H]2CN(Cc1ccc(Cl)c(F)c1)C(=O)c1cn(C)cn1
IC50 (Cytochrome P450 2C9): > 10 µM
IC50 (Cytochrome P450 3A4): > 10 µM

Cn1cnc(S(=O)(=O)N2C[C@@H]3[C@H](C2)[C@@]3(CNC(=O)c2ccccc2C(F)(F)F)c2ccccn2)c1
IC50 (Cytochrome P450 2C9): > 30 µM
IC50 [2]: 0.185 µM
IC50 (Cytochrome P450 3A4): > 30 µM
IC50 (Cytochrome P450 2D6): > 30 µM
IC50 (Cytochrome P450 1A2): > 30 µM
fraction unbound [16]: 0.076

CC(C)S(=O)(=O)N1C[C@@H]2[C@H](C1)[C@@]2(CNC(=O)c1ccc(Cl)cc1Cl)CC1CC1
IC50 [1]: > 30 µM
IC50 [2]: 3.4 µM

Cn1cnc(S(=O)(=O)N2C[C@@H]3[C@H](C2)[C@@]3(CNC(=O)c2cccc(C(F)(F)F)c2)CC2CC2)c1
Kp ([6]; brain and plasma, read-out: Kp): 0.7
IC50 [2]: 0.064 µM
Fu (Plasma [15]): 4%

CC(C)CS(=O)(=O)N1C[C@@H]2[C@H](C1)[C@@]2(CNC(=O)c1ccc(Cl)cc1Cl)CC1CC1
IC50 [1]: > 30 µM
IC50 [2]: 2.9 µM

Cn1cnc(S(=O)(=O)N2C[C@@H]3[C@H](C2)[C@@]3(CNC(=O)c2ccc(Cl)cc2Cl)c2ccccn2)c1
Kp ([6]; brain): 1.1
IC50 (Cytochrome P450 2C9): > 30 µM
IC50 [2]: 0.247 µM
IC50 (Cytochrome P450 3A4): > 30 µM
IC50 (Cytochrome P450 2D6): > 30 µM
IC50 (Cytochrome P450 1A2): > 30 µM
fraction unbound [16]: 0.14

Cn1cnc(S(=O)(=O)N2C[C@@H]3[C@H](C2)[C@@]3(CNC(=O)c2ccc(Cl)c(Cl)c2)CC2CC2)c1
Kp ([6]; brain): 0.3
IC50 [2]: 0.082 µM
Fu (Plasma [15]): 2%

O=C(NC[C@]1(CC2CC2)[C@@H]2CN(S(=O)(=O)c3cccnc3)C[C@@H]21)c1ccc(Cl)cc1Cl
IC50 [1]: > 30 µM
IC50 [2]: 0.89 µM

CCCS(=O)(=O)N1CCC(c2ccccc2)([C@H](C)NC(=O)c2ccc(Cl)cc2Cl)CC1
IC50 (Cytochrome P450 2C9): > 10 µM
IC50 [2]: 0.0024 µM
IC50 (Cytochrome P450 3A4): > 10 µM

Cn1cnc(S(=O)(=O)N2C[C@@H]3[C@H](C2)[C@@]3(CNC(=O)c2ccccc2Cl)CC2CC2)c1
Kp ([6]; brain and plasma, read-out: Kp): 0.4
fraction unbound [16]: 0.03

Cn1cnc(S(=O)(=O)N2C[C@@H]3[C@H](C2)[C@@]3(CNC(=O)c2c(Cl)cccc2Cl)CC2CC2)c1
Kp ([6]; brain): 0.5
IC50 [2]: 0.028 µM
inhibition [17]: Active
Fu (Plasma [15]): 8%

Cn1cnc(S(=O)(=O)N2C[C@@H]3[C@H](C2)[C@@]3(CNC(=O)c2cc(Cl)cc(Cl)c2)CC2CC2)c1
Kp ([6]; brain): 0.3
IC50 [2]: 0.1 µM
Fu (Plasma [15]): 2%

Cn1cnc(S(=O)(=O)N2C[C@@H]3[C@H](C2)[C@@]3(CNC(=O)c2ccc(Cl)cc2Cl)CC2CC2)c1
Kp ([6]; brain and plasma, read-out: Kp): 0.3
fraction unbound [16]: 0.05

CCCCS(=O)(=O)N1C[C@@H]2[C@H](C1)[C@@]2(CNC(=O)c1ccc(Cl)cc1Cl)CC1CC1
IC50 [1]: > 30 µM
IC50 [2]: 5.5 µM

Cn1cnc(S(=O)(=O)N2C[C@@H]3[C@H](C2)[C@@]3(CNC(=O)c2ccc(Cl)cc2)CC2CC2)c1
Kp ([6]; brain): 0.3
IC50 [2]: 0.032 µM
Fu (Plasma [15]): 3%

CCS(=O)(=O)N1C[C@@H]2[C@H](C1)[C@@]2(CNC(=O)c1ccc(Cl)cc1Cl)CC1CC1
IC50 [1]: > 30 µM
IC50 [2]: 1.3 µM

O=C(NC[C@]1(CC2CC2)[C@@H]2CN(S(=O)(=O)c3ccccc3F)C[C@@H]21)c1ccc(Cl)cc1Cl
IC50 [1]: > 30 µM
IC50 [2]: > 10 µM

CCS(=O)(=O)N1CCC(CNC(=O)c2ccc(Cl)cc2Cl)(CC2CC2)CC1
IC50 (Cytochrome P450 2C9): > 10 µM
inhibition (Rattus norvegicus [7]): Active
IC50 (Cytochrome P450 3A4): > 10 µM
Activity (Rattus norvegicus [12]): Non-toxic

CCCS(=O)(=O)N1C[C@@H]2[C@H](C1)[C@@]2(CNC(=O)c1ccc(Cl)cc1Cl)CC1CC1
IC50 [1]: > 30 µM
IC50 [2]: 0.36 µM

NCC(=O)O [GLYCINE]
IC50 [2]: 31.6 µM
